Laboratory results taken from patent US12171797B2, “Composition for ameliorating premenstrual syndrome symptoms, including chrysanthemum zawadskii extract” (GENENCELL INC., priority 2019, dated 2024).

Test system: hyperprolactinemia-induced female rats
Test: Hyperprolactinemia-induced (metoclopramide) animal model of premenstrual syndrome, serum prolactin and progesterone by ELISA
Format: in vivo
Details: 50 mg/kg metoclopramide to the abdominal cavity for 5 days
Procedure: Metoclopramide is used as an antiemetic drug, and increases the secretion of prolactin by inhibiting dopamine secretion, and accordingly, it is known as a drug that inhibits the secretion of progesterone, luteinizing hormone, and follicle-stimulating hormone (Wang et al., 2014). Therefore, in the present invention, 50 mg/kg of metoclopramide was administered to the abdominal cavity of female rats for 5 days, after which hyperprolactinemia was induced to establish an animal model of premenstrual syndrome caused by hormone secretion disorder. Rats (females) were obtained from Raonbio, and were acclimatized for 1 week while general solid feed and water were freely supplied thereto. The environmental conditions of the animal room were set to a temperature of 23±3° C., a relative humidity of 50±10%, a lighting time of 12 hours (8 am to 8 pm), a ventilation frequency of 10 to 20 times/hour, and an illumination intensity of 150 to 300 Lux. During the experiment, the temperature and humidity of the animal room were automatically controlled using a thermo-hygrostat. […] After termination of the experiment, blood was collected, serum was isolated therefrom, and the amounts of secreted prolactin and progesterone in the serum were measured using an ELISA kit. […]

Structure (SMILES): CCN(CC)CCNC(=O)c1cc(Cl)c(N)cc1OC [metoclopramide, Metoclopramide]
- Prolactin levels in the serum after model induction (FIG. 1): increased
- Progesterone levels in the serum after model induction (fraction of normal) (FIG. 2): about ⅕
